The values below come from EP2818472A1, “Imidazo[4,5-c]pyridine and pyrrolo[3,2-c]pyridine compounds as G-protein-coupled receptor kinase 5 (GRK5) modulators” (Max-Planck-Gesellschaft zur Förderung der Wissenschaften …, priority 2013, dated 2014).

The test system of the first assay is beta-TC6 cells. Kind of assay: Insulin HTRF assay (relative activity Ar) in beta-TC6 cells. In kind it is cell-based, mouse. Conditions: Mus musculus, Beta-TC6, 4 h, insulin HTRF, supernatant of beta-TC6 cells, incubation with test compound at 37°C for 2, 3, 4h; read-out: Ar (relative activity). The procedure, abridged:
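beta-TC6 cells (15k/well, seeded 24 or 48 h) washed, then exposed to compound in induction buffer (0.5% DMSO final) for 2, 3 or 4 h at 37°C.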
In general terms: TR-FRET usually uses a lanthanide donor and a delayed reading to cut background.
Turning to `COc1ccc(Nc2nccc3[nH]c(-c4ccsc4)cc23)cc1` [Compound 259, N-(4-methoxyphenyl)-2-(3-thienyl)-1H-pyrrolo[3,2-c]pyridin-4-amine], the Emax was 50 to 100%.
The same measure, in the same setting: the same measure for `Cc1cccc(Nc2cc3[nH]c(-c4ccc(C(=O)N(C)C)cc4)cc3cn2)c1` [Compound 28, N,N-dimethyl-4-[6-(3-methylanilino)-1H-pyrrolo[3,2-c]pyridin-2-yl]benzamide]: 50 to 100%; for `COCCNc1nc2cnc(-c3ccc4ccccc4c3)cc2[nH]1` [Compound 677, N-(2-methoxyethyl)-6-(2-naphthyl)-1H-imidazo[4,5-c]pyridin-2-amine]: 50 to 100%.
On the same count and under the same terms, the same measure for `Clc1ccccc1-c1nc2c(NCCc3ccncc3)nccc2[nH]1` [Compound 459, 2-(2-chlorophenyl)-N-[2-(4-pyridyl)ethyl]-1H-imidazo[4,5-c]pyridin-4-amine]: 0 to 30%.
The same measure, in the same setting: the same measure for `COc1ccc(-c2nc3cnc(Nc4ccc5c(c4)OCO5)cc3n2C)cc1OC` [Compound 722, N-(1,3-benzodioxol-5-yl)-2-(3,4-dimethoxyphenyl)-1-methyl-imidazo[4,5-c]pyridin-6-amine]: 30 to 50%.
Regarding `COc1cccc(Nc2nccc3[nH]c(-c4ccc(OC)c(OC)c4)nc23)c1` [Compound 341, 2-(3,4-dimethoxyphenyl)-N-(3-methoxyphenyl)-1H-imidazo[4,5-c]pyridin-4-amine], the Emax was in the range of 50 to 100%.
Take `Cn1c(NCC2CC2)nc2cnc(-c3cccc(Oc4ccccc4)c3)cc21` [Compound 758, N-(cyclopropylmethyl)-1-methyl-6-(3-phenoxyphenyl)imidazo[4,5-c]pyridin-2-amine]: the Emax lay within 0 to 30%.
Same read-out and setting: the value for `CNc1nc2cnc(Nc3cc(OC)c(OC)c(OC)c3)cc2n1Cc1ccco1` [Compound 519, 1-(2-furylmethyl)-N2-methyl-N6-(3,4,5-trimethoxyphenyl)imidazo[4,5-c]pyridine-2,6-diamine] was 50 to 100%; that for `COc1cccc(-c2cc3c(Nc4ccc(N5CCN(C)CC5)cc4)nccc3[nH]2)c1` [Compound 310, 2-(3-methoxyphenyl)-N-[4-(4-methylpiperazin-1-yl)phenyl]-1H-pyrrolo[3,2-c]pyridin-4-amine] was 50 to 100%.
With `COc1cc(Nc2cc3[nH]c(-c4cn[nH]c4)cc3cn2)cc(C(F)(F)F)c1` [Compound 116, N-[3-methoxy-5-(trifluoromethyl)phenyl]-2-(1H-pyrazol-4-yl)-1H-pyrrolo[3,2-c]pyridin-6-amine], the Emax lay in the range of 0 to 30%.
On the same count and under the same terms, the same measure for `CNc1nc2cnc(Nc3ccc(OC(C)C)cc3)cc2n1CCOC` [Compound 500, N6-(4-isopropoxyphenyl)-1-(2-methoxyethyl)-N2-methyl-imidazo[4,5-c]pyridine-2,6-diamine]: 50 to 100%; for `CNc1nc2cnc(Nc3cc(OC)c(OC)c(OC)c3)cc2n1CC1CC1` [Compound 567, 1-(cyclopropylmethyl)-N2-methyl-N6-(3,4,5-trimethoxyphenyl)imidazo[4,5-c]pyridine-2,6-diamine]: 50 to 100%; for `Cn1cc(-c2cc3cnc(Nc4cccnc4)cc3n2C)cn1` [Compound 131, 1-methyl-2-(1-methylpyrazol-4-yl)-N-(3-pyridyl)pyrrolo[3,2-c]pyridin-6-amine]: over 100%.
As to `CN(C)c1ccc(-c2cc3cnc(Nc4cccc(O)c4)cc3n2Cc2ccccc2)cc1` [Compound 60, 3-[[1-benzyl-2-(4-dimethylaminophenyl)pyrrolo[3,2-c]pyridin-6-yl]amino]phenol], the Emax lay within 0 to 30%.
Turning to `CNc1nc2cnc(Nc3cccc(OC)c3)cc2n1Cc1cccnc1` [Compound 560, N6-(3-methoxyphenyl)-N2-methyl-1-(3-pyridylmethyl)imidazo[4,5-c]pyridine-2,6-diamine], the Emax was in the range of 50 to 100%.
Still for that read-out and setting: the value for `CC(=O)Nc1cccc(Nc2cc3[nH]c(-c4ccccc4)cc3cn2)c1` [Compound 183, N-[3-[(2-phenyl-1H-pyrrolo[3,2-c]pyridin-6-yl)amino]phenyl]acetamide] was 50 to 100%.
Same read-out and setting: the same measure for `Cc1cccc(CNc2nc3cnc(-c4ccc(Cl)cc4)cc3n2C)c1` [Compound 581, 6-(4-chlorophenyl)-1-methyl-N-(m-tolylmethyl)imidazo[4,5-c]pyridin-2-amine]: 30 to 50%.
Consider `CNc1nc2cnc(-c3cccs3)cc2n1Cc1cccnc1` [Compound 566, N-methyl-1-(3-pyridylmethyl)-6-(2-thienyl)imidazo[4,5-c]pyridin-2-amine], for which the Emax lay within 30 to 50%.
Consider `CNc1nc2cnc(Nc3cccc(C)c3)cc2n1Cc1ccccc1` [Compound 530, 1-benzyl-N2-methyl-N6-(m-tolyl)imidazo[4,5-c]pyridine-2,6-diamine], for which the Emax fell in the range of 30 to 50%.
Still for that read-out and setting: the same measure for `CNc1nc2cnc(Nc3ccc(OC)cc3OC)cc2n1C` [Compound 610, N6-(2,4-dimethoxyphenyl)-N2,1-dimethyl-imidazo[4,5-c]pyridine-2,6-diamine]: 50 to 100%.
On the same count and under the same terms, the value for `COc1cc(OC)cc(-c2cc3c(N4CCOCC4)nccc3n2C)c1` [Compound 192, 4-[2-(3,5-dimethoxyphenyl)-1-methyl-pyrrolo[3,2-c]pyridin-4-yl]morpholine] was 0 to 30%; that for `COc1ccc(Nc2cc3[nH]c(-c4cccc(F)c4)cc3cn2)cc1OC` [Compound 7, N-(3,4-dimethoxyphenyl)-2-(3-fluorophenyl)-1H-pyrrolo[3,2-c]pyridin-6-amine] was 50 to 100%; that for `Cn1c(NCc2ccccc2)nc2cnc(-c3ccc(N4CCOCC4)cc3)cc21` [Compound 614, N-benzyl-1-methyl-6-(4-morpholinophenyl)imidazo[4,5-c]pyridin-2-amine] was 50 to 100%.
Same read-out and setting: the same measure for `Fc1cccc(-c2cc3c(Nc4ccc5c(c4)OCO5)nccc3[nH]2)c1` [Compound 203, N-(1,3-benzodioxol-5-yl)-2-(3-fluorophenyl)-1H-pyrrolo[3,2-c]pyridin-4-amine]: 30 to 50%; for `FC(F)(F)c1cccc(Nc2nccc3[nH]c(-c4ccccc4Cl)nc23)c1` [Compound 462, 2-(2-chlorophenyl)-N-[3-(trifluoromethyl)phenyl]-1H-imidazo[4,5-c]pyridin-4-amine]: 0 to 30%; for `COc1ccc(Nc2cc3[nH]c(-c4ccccn4)cc3cn2)c(C)c1` [Compound 63, N-(4-methoxy-2-methyl-phenyl)-2-(2-pyridyl)-1H-pyrrolo[3,2-c]pyridin-6-amine]: 50 to 100%.
On to `COc1ccc(Nc2nccc3c2ncn3C)cc1OC` [Compound 447, N-(3,4-dimethoxyphenyl)-1-methyl-imidazo[4,5-c]pyridin-4-amine], for which the Emax is 50 to 100%.
Still for that read-out and setting: the value for `CC(=O)Nc1ccc(Nc2cc3c(cn2)ncn3Cc2ccco2)cc1` [Compound 692, N-[4-[[1-(2-furylmethyl)imidazo[4,5-c]pyridin-6-yl]amino]phenyl]acetamide] was 30 to 50%; that for `COc1cc(Nc2nccc3[nH]c(-c4ccccc4)nc23)cc(OC)c1OC` [Compound 329, 2-phenyl-N-(3,4,5-trimethoxyphenyl)-1H-imidazo[4,5-c]pyridin-4-amine] was 50 to 100%.
Same read-out and setting: the same measure for `CNc1nc2cnc(-c3cccc(C(F)(F)F)c3)cc2n1C` [Compound 831, N,1-dimethyl-6-[3-(trifluoromethyl)phenyl]imidazo[4,5-c]pyridin-2-amine]: 0 to 30%; for `CN(C)C(=O)c1ccc(Nc2cc3c(cn2)nc(NCc2ccccc2)n3C)cc1` [Compound 626, 4-[[2-(benzylamino)-1-methyl-imidazo[4,5-c]pyridin-6-yl]amino]-N,N-dimethyl-benzamide]: 30 to 50%.
The same measure, in the same setting: the same measure for `COc1cc(CNc2nccc3[nH]c(-c4ccccc4Cl)nc23)cc(OC)c1OC` [Compound 460, 2-(2-chlorophenyl)-N-[(3,4,5-trimethoxyphenyl)methyl]-1H-imidazo[4,5-c]pyridin-4-amine]: 0 to 30%; for `Cn1cc(-c2cc3cnc(Nc4cccc(F)c4)cc3n2C)cn1` [Compound 151, N-(3-fluorophenyl)-1-methyl-2-(1-methylpyrazol-4-yl)pyrrolo[3,2-c]pyridin-6-amine]: 50 to 100%.
For the compound `COc1ccc(Nc2nccc3[nH]c(-c4cccc(C(F)(F)F)c4)nc23)cc1` [Compound 356, N-(4-methoxyphenyl)-2-[3-(trifluoromethyl)phenyl]-1H-imidazo[4,5-c]pyridin-4-amine], the Emax was over 100%.
The same measure, in the same setting: the value for `Cn1nc(C(C)(C)C)cc1Nc1cc2c(cn1)ncn2Cc1ccco1` [Compound 776, N-(5-tert-butyl-2-methyl-pyrazol-3-yl)-1-(2-furylmethyl)imidazo[4,5-c]pyridin-6-amine] was 0 to 30%; that for `Cc1cccc(CNc2nc3cnc(-c4ccoc4)cc3n2C)c1` [Compound 583, 6-(3-furyl)-1-methyl-N-(m-tolylmethyl)imidazo[4,5-c]pyridin-2-amine] was 50 to 100%; that for `COc1ccccc1-c1cc2c(Nc3cccnc3)nccc2n1C` [Compound 303, 2-(2-methoxyphenyl)-1-methyl-N-(3-pyridyl)pyrrolo[3,2-c]pyridin-4-amine] was 30 to 50%.
Turning to `CNc1nc2cnc(Nc3cccc(C)c3)cc2n1Cc1cccnc1` [Compound 564, N2-methyl-N6-(m-tolyl)-1-(3-pyridylmethyl)imidazo[4,5-c]pyridine-2,6-diamine], the Emax lay within 50 to 100%.
`CNc1nc2cnc(Nc3ccc(OC)c(OC)c3)cc2n1CCN1CCOCC1` [Compound 555, N6-(3,4-dimethoxyphenyl)-N2-methyl-1-(2-morpholinoethyl)imidazo[4,5-c]pyridine-2,6-diamine]: the Emax lay in the range of 30 to 50%.
In the case of `CNc1nc2cnc(Nc3ccc(C(=O)OC)cc3)cc2n1-c1ccccc1` [Compound 511, methyl 4-[[2-(methylamino)-1-phenyl-imidazo[4,5-c]pyridin-6-yl]amino]benzoate], the Emax was in the range of 30 to 50%.

The assay is the same for the next values; noted with them: insulin HTRF, supernatant of beta-TC6 cells, incubation with test compound at 37°C for 2, 3, 4h.
`CNc1nc2cnc(-c3ccc(N(C)C)cc3)cc2n1-c1ccccc1` [Compound 501, 6-(4-dimethylaminophenyl)-N-methyl-1-phenyl-imidazo[4,5-c]pyridin-2-amine]: the “Ar (relative activity)” value is listed as “++++ (Ar ≥ 100 %)”.
